We go through 1 compound from patent US4576961A, “Antibiotic heterocyclic oxygen compounds and use” (priority 1980, dated 1986).

In one series the test system is microorganisms. Briefly: anti-microbial effect. Format: cell-based.
Series [1] is described as follows: stability of PR-1381 in solution. It is filed as physicochemical. On the procedure:
Characteristic signals seen in an ^1 H-NMR-spectrum recorded immediately after dissolution of PR-1381 in deuterochloroform are listed in table E.
When the solution in deuterochloroform is allowed to stand at room temperature, these initial signals gradually disappear while methanol is liberated from the molecule, and finally after 10 hours, a spectrum is observed which is identical with that obtained from PR-1350 complex in deuterochloroform, except for an extra signal at δ=3.48, probably due to methanol liberated during the transformation of PR-1381 to the PR-1350 complex.

Regarding `COC1(O)C(O)OC(CC2(C)C(C)CCC3(C)C(C=O)=CCCC32)C12CO2` (stereo not shown) [PR-1381], the antibiotic activity entry with microorganisms is recorded as “antibiotically active”. The “anti-microbial effect compared with PR-1350 complex” value in the series on microorganisms (qualitatively and quantitatively) is reported as “identical with that of the PR-1350 complex”. Moreover, the “time after which spectrum is identical with that of PR-1350 complex” value in series [1] (deuterochloroform, room temperature) was determined as 10 h. For the same compound, the decomposition in solution result in series [1] (in solution) was “decomposes to the PR-1350 complex with liberation of methanol”.
